Measurements from ChEMBL document CHEMBL3044770, “Studies on toxicity of antitubercular drugs namely isoniazid, rifampicin, and pyrazinamide in an in vitro model of HepG2 cell line” (Med Chem Res, 2011).

Key:
Type in all cases: cell-based
[1] = Toxicity in Homo sapiens (human) HepG2 cells assessed as cell viability at 100 uM after 24 hr by MTT assay; conditions: read-out: Activity
[2] = Toxicity in Homo sapiens (human) HepG2 cells assessed as cell viability at 50 uM after 24 hr by MTT assay; conditions: read-out: Activity
[3] = Toxicity in Homo sapiens (human) HepG2 cells assessed as cell viability at 25 uM after 24 hr by MTT assay; conditions: read-out: Activity
[4] = Toxicity in Homo sapiens (human) HepG2 cells assessed as cell viability at 10 mM after 24 hr by MTT assay; conditions: read-out: Activity
[5] = Toxicity in Homo sapiens (human) HepG2 cells assessed as cell viability at 1 mM after 24 hr by MTT assay; conditions: read-out: Activity
[6] = Toxicity in pyrazinamide pretreated Homo sapiens (human) HepG2 cells assessed as cell viability at 200 mM after 24 hr by MTT assay; conditions: HepG2 cells pretreated with pyrazinamide, read-out: Activity
HepG2 = assay: Toxicity in Homo sapiens (human) HepG2 cells assessed as change in cell morphology at 1 mM after 24 hr by phase contrast microscopic analysis; conditions: hepg2, 24 h, 1000 µM
[7] = Toxicity in Homo sapiens (human) HepG2 cells assessed as cell viability at 5 mM after 24 hr by MTT assay; conditions: read-out: Activity
[8] = Toxicity in Homo sapiens (human) HepG2 cells assessed as cell viability at 50 mM after 24 hr by MTT assay; conditions: read-out: Activity
[9] = Toxicity in isoniazid pretreated Homo sapiens (human) HepG2 cells assessed as cell viability at 200 mM after 24 hr by MTT assay; conditions: HepG2 cells pretreated with isoniazid, read-out: Activity

| SMILES | viability at 24 h, 100 µM [1] [%] | viability at 24 h, 50 µM [2] [%] | viability at 24 h, 25 µM [3] [%] | viability at 24 h, 10000 µM [4] [%] | viability at 24 h, 1000 µM [5] [%] | viability at 24 h, 200000 µM [6] [%] | Activity (HepG2) | viability at 24 h, 5000 µM [7] [%] | viability at 24 h, 50000 µM [8] [%] | viability at 24 h, 200000 µM [9] [%] |
| --- | --- | --- | --- | --- | --- | --- | --- | --- | --- | --- |
| CO[C@H]1/C=C/O[C@@]2(C)Oc3c(C)c(O)c4c(O)c(c(/C=N/N5CCN(C)CC5)c(O)c4c3C2=O)NC(=O)/C(C)=C\C=C\[C@H](C)[C@H](O)[C@@H](C)[C@@H](O)[C@@H](C)[C@H](OC(C)=O)[C@@H]1C [RIFAMPIN] | 192 | 116 | 115 | – | – | – | – | – | – | – |
| NNC(=O)c1ccncc1 [ISONIAZID] | – | – | – | 129 | 125 | 56.1 | Non-toxic | 99.7 | 91.3 | – |
| NC(=O)c1cnccn1 [PYRAZINAMIDE] | – | – | – | 104 | 87.7 | – | Non-toxic | 102 | 102 | 60.1 |
